Reference: patent EP4653440A1, “HETEROCYCLIC COMPOUND, AND PHARMACEUTICAL COMPOSITION AND USE THEREOF” (Prime Gene Therapeutics Co., Ltd., priority 2023, dated 2024)

Assays:
ROCK1 = ROCK1 (Homo sapiens, UniProt Q13464); test: ROCK1 kinase enzymatic activity (HTRF, STK2 substrate); format: biochemical; conditions: ROCK1 kinase reaction 20 minutes at room temperature
From the text: (§1) The kinase activity data was expressed by comparing the kinase activity of the test compound and that of the blank group (containing only DMSO), and the IC50 value was obtained by curve fitting using Prism software (GraphPad7.0).

[1] = tested on: phosphorylation of myosin light chain T18/S19; test: In Cell Western for phosphorylation of myosin light chain in A7r5 cells; format: cell-based, rat; conditions: Rattus norvegicus, A7R5, 1 h
From the text: The rat smooth muscle cell line A7r5 was used, and the A7r5 cell culture conditions were DMEM containing 10% FBS. Phspho-MLC-T18/S19 specific antibody and a second detection antibody were used to detect the phosphorylation level of myosin light chain by In Cell Western. Cells treated with positive compounds were used as positive controls, while the group without compounds but with compound solvents was used as negative controls. DRAQ5 stained cell nuclei were used as internal references. GraphPad Prism 7.0 software was used, and fitting was carried out by using a non-linear regression curve with varying slopes to determine the absolute IC50 value.
On the first day, A7r5 cells were resuspended in serum-free medium and seeded into 384 wells of PDL coated transparent black plates at a density of 5000 cells per well. Serum starvation culture was performed for 4 hours, and the cells were incubated with the compound in serum-free medium for 1 hour. 50 µL of 8% PFA (polyformaldehyde) was added to each well and fixed at room temperature for 1 hour. The liquid in the wells was discard and 90 µL of ice methanol was added to each well to permeabilize the cells at 4 °C for 1 hour. Then, PBST (0.1% Tween20-PBS) was added using an automatic separator to wash three times. After patting the plate for drying, 50 µL blocking solution was added to each well for sealing at room temperature for 1 hour. The phspho-MLC-T18/S19 specific antibody was diluted with the blocking solution at a ratio of 1:200. After adding 20 µL to each well, incubation was carried out overnight at 4 °C with a sealed film.
On the second day, the liquid in the wells was discarded and PBST was added using an automatic separator to wash the plate 5 times. After patting the plate for drying, the second detection antibody was diluted with blocking solution at a ratio of 1:800 and DRAQ5 at a ratio of 1:1000. After adding 20 µL to each well, incubation was carried out at room temperature for 1 hour. Then, the liquid in the wells was discarded and PBST was added using an automatic separator to wash the plate 3 times, followed by adding ddH2O to wash the plate 3 times. After patting the plate for drying, it was scaned using a LICOR Odyssey near-infrared imaging scanner.

[2] = tested on: Norwegian rat glaucoma model induced by hypertonic saline solution; test: Norwegian rat glaucoma model induced by hypertonic saline solution (intraocular pressure); format: in vivo; conditions: 0.02% eye drops once a day, one drop; compared with model control group; 0 to 24 hours after administration
From the text: Experimental method: after animal anesthesia, the lateral canthus of the right eye was incised, and a polypropylene ring was placed at the equator of the eyeball, with the notch of the ring located in the upper quadrant of the eyeball, leaving only one scleral surface vein above. […] After injection, the polypropylene ring was removed and antibiotic eye ointment was applied to the operated eye.
After modeling, a rebound tonometer was used continuously to measure the intraocular pressure of both eyes, once every 3 days, and the average of 6 measurements was took each time and recorded; After the intraocular pressure had been stabilized (about 20 days later), the subjects were randomly divided into three groups based on the most recent measurement of intraocular pressure and body weight: sham surgery group, model control group, and test drug group (0.02% Example 29) group, with 5 animals in each group. After grouping, eye drops were administered once a day, with one drop per time. During the administration period, dynamic intraocular pressure was measured once a week (detecting the intraocular pressure change curve from 0 to 24 hours after administration) until the end of the experiment.

ROCK2 = ROCK2 (Homo sapiens, UniProt O75116); test: ROCK2 kinase enzymatic activity (HTRF, STK2 substrate); format: biochemical; conditions: ROCK2 kinase reaction 30 minutes at room temperature
From the text: as §1

ROCK1, sequence (Q13464 whole entry): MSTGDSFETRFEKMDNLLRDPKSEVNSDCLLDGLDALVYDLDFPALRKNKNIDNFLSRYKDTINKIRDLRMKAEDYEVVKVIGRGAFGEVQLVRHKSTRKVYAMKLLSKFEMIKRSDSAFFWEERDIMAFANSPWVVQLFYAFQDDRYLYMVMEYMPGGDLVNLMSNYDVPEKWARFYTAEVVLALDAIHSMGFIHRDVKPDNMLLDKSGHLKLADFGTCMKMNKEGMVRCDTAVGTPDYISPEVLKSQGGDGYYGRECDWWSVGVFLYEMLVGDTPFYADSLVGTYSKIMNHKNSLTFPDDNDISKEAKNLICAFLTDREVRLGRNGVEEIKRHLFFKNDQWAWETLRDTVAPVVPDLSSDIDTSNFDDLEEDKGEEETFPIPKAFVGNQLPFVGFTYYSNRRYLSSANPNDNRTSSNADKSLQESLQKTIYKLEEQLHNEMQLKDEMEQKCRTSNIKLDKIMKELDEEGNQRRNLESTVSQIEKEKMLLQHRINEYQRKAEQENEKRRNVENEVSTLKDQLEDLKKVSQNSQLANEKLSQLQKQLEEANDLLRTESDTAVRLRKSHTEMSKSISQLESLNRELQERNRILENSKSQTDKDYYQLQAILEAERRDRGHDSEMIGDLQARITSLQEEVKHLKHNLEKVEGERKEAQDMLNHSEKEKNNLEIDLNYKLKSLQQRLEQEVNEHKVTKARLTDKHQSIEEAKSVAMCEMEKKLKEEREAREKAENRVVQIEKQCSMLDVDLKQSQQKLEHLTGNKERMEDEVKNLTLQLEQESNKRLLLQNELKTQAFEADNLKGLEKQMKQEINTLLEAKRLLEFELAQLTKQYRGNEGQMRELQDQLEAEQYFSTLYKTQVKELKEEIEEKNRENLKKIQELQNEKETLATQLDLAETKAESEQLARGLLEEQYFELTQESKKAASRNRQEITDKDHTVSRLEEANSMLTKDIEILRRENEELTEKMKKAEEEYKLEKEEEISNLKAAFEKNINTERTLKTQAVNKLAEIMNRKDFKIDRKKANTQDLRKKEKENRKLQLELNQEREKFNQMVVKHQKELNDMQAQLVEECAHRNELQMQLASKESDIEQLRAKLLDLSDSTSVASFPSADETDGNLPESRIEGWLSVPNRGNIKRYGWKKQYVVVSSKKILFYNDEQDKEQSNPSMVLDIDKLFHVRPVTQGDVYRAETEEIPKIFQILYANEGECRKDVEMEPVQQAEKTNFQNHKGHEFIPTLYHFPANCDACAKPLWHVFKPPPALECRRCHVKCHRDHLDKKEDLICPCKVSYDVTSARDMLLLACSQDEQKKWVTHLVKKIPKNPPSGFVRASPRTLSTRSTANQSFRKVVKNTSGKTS
ROCK2, sequence (O75116 whole entry): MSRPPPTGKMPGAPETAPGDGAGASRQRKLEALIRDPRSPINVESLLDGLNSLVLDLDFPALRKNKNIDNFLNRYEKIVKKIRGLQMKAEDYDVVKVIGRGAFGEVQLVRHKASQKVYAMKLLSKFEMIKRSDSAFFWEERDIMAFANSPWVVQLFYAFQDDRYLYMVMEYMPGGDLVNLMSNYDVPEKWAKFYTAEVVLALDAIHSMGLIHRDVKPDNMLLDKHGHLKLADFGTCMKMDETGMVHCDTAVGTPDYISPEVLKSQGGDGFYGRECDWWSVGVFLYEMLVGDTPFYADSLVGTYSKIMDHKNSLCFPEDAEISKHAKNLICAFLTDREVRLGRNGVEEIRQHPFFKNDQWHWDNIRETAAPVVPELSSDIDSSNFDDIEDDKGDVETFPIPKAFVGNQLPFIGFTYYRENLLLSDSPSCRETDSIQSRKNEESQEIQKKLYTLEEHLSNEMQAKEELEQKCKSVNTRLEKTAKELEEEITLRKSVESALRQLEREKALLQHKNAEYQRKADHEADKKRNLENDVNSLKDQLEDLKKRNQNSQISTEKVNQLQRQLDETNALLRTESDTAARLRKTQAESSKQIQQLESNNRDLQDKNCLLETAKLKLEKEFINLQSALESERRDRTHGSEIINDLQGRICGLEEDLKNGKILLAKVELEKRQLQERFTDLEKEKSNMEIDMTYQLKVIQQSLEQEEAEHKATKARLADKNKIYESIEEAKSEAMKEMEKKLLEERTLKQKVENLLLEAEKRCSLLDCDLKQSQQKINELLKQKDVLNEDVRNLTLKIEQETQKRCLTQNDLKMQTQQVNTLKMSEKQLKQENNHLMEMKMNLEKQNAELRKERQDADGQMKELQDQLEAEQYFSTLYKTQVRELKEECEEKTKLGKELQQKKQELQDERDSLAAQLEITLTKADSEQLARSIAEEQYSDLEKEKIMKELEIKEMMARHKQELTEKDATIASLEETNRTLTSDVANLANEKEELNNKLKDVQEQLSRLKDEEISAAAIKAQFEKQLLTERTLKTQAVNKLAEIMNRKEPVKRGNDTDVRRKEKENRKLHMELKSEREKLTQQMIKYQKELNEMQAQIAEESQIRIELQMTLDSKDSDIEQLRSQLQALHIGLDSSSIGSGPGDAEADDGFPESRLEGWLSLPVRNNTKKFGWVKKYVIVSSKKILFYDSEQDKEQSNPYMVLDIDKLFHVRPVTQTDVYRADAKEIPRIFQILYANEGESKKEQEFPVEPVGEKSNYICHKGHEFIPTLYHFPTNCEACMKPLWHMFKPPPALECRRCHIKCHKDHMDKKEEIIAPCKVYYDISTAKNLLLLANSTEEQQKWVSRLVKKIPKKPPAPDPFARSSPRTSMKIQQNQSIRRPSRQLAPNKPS

SMILES | IC50 (ROCK1) | IC50 [1] | IC50 (ROCK2) | intraocular pressure [2]
N#CCC1(n2cc(-c3ncnc4[nH]ccc34)c(N)n2)CC(C#N)C1 (stereo not shown) [Example 9, 3-(3-amino-4-(7H-pyrrolo[2,3-d]pyrimidin-4-yl)-1H-pyrazol-1-yl)-3-(cyanomethyl)cyclobutane-1-carbonitrile] | < 10 nM | 0.068 µM | < 10 nM | –
N#CCC(C1CCC1)n1cc(-c2ncnc3[nH]ccc23)c(N)n1 (stereo not shown) [Example 13, 3-(3-amino-4-(7H-pyrrolo[2,3-d]pyrimidin-4-yl)-1H-pyrazol-1-yl)-3-cyclobutylpropionitrile] | < 5 nM | 0.122 µM | < 5 nM | –
N#CCC1(n2cc(-c3ncnc4[nH]ccc34)c(N)n2)CCS(=O)(=O)CC1 [Example 1, 2-(4-(3-amino-4-(7H-pyrrolo[2,3-d]pyrimidin-4-yl)-1H-pyrazol-1-yl)-1,1-dioxidotetrahydro-2H-thiopyran-4-yl)acetonitrile] | < 2 nM | 0.092 µM | < 1 nM | –

The next lines start with results.

IC50 (ROCK1) | IC50 [1] | IC50 (ROCK2) | SMILES | intraocular pressure [2]
< 5 nM | 0.106 µM | < 5 nM | N#CC[C@H](C1CCCCC1)n1cc(-c2ncnc3[nH]ccc23)c(N)n1 [Example 29, (R)-3-(3-amino-4-(7H-pyrrolo[2,3-d]pyrimidin-4-yl)-1H-pyrazol-1-yl)-3-cyclohexylpropionitrile] | significantly decreased
< 5 nM | 0.075 µM | < 2 nM | N#CC[C@H](C1CC1)n1cc(-c2ncnc3[nH]ccc23)c(N)n1 [Example 25, (R)-3-(3-amino-4-(7H-pyrrolo[2,3-d]pyrimidin-4-yl)-1H-pyrazol-1-yl)-3-cyclopropylpropionitrile] | –
